Test results published in US20110040086A1, “Novel Beta-Lactam Antibiotics, Methods for Their Production, and Their Use” (DRITTE PATENTPORTFOLIO BETEILIGUNGSGESELLSCHAFT MB, priority 2007, published 2011).

What was measured:
[1] = tested on: Enterococcus faecalis 769; test: agar diffusion test (Test System II, multi-resistant germs); type: cell-based; set-up: key: r = resistant (no detectable zone of inhibition)
How it was run: (§1)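 Disc diffusion on Müller-Hinton II agar; inoculum McFarland 0.5 in saline, streaked in three directions. Discs carry 10/50/100 μg compound (MeOH or water). 37 °C, 18-20 h; read-out: zone-of-inhibition diameter.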

[2] = tested on: Staphylococcus aureus 315; test: as above; type: cell-based; set-up: key: r = resistant (no detectable zone of inhibition)
How it was run: as §1

E. faecalis 945 = test: as above; type: cell-based, Enterococcus faecalis; set-up: key: r = resistant (no detectable zone of inhibition)
How it was run: as §1

S. aureus ATCC 6538 = test: as above; type: cell-based, Staphylococcus aureus
How it was run: as §1

S. aureus 38418 = test: as above; type: cell-based, Staphylococcus aureus
How it was run: as §1

S. aureus 520 = test: as above; type: cell-based, Staphylococcus aureus; set-up: key: r = resistant (no detectable zone of inhibition)
How it was run: as §1

S. aureus 33490 = test: as above; type: cell-based, Staphylococcus aureus; set-up: key: r = resistant (no detectable zone of inhibition)
How it was run: as §1

S. aureus 36881 = test: as above; type: cell-based, Staphylococcus aureus; set-up: key: r = resistant (no detectable zone of inhibition)
How it was run: as §1

[3] = tested on: S. aureus North Germany strain; test: as above; type: cell-based, Staphylococcus aureus; set-up: key: r = resistant (no detectable zone of inhibition)
How it was run: as §1

S. aureus 34289 = test: as above; type: cell-based, Staphylococcus aureus; set-up: key: r = resistant (no detectable zone of inhibition)
How it was run: as §1

S. aureus 526 = test: as above; type: cell-based, Staphylococcus aureus; set-up: key: r = resistant (no detectable zone of inhibition)
How it was run: as §1

S. aureus 39105 = test: as above; type: cell-based, Staphylococcus aureus; set-up: key: r = resistant (no detectable zone of inhibition)
How it was run: as §1

S. epidermidis 1068 = test: as above; type: cell-based, Staphylococcus epidermidis; set-up: key: r = resistant (no detectable zone of inhibition)
How it was run: as §1

S. epidermidis 563 = test: as above; type: cell-based, Staphylococcus epidermidis; set-up: key: r = resistant (no detectable zone of inhibition)
How it was run: as §1

S. epidermidis 847 = test: as above; type: cell-based, Staphylococcus epidermidis; set-up: key: r = resistant (no detectable zone of inhibition)
How it was run: as §1

S. epidermidis 1071 = test: as above; type: cell-based, Staphylococcus epidermidis; set-up: key: r = resistant (no detectable zone of inhibition)
How it was run: as §1

S. epidermidis 125 = test: as above; type: cell-based, Staphylococcus epidermidis
How it was run: as §1

[4] = tested on: Bacillus megaterium SBUG 1152; test: agar diffusion test (Test System 1, antimicrobial effect); type: cell-based
How it was run: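 Paper discs loaded with 10 μg, 50 μg or 100 μg of test substance (methanol or water solution) placed on nutrient agar seeded with 10^6 cells of a 17-h B. megaterium culture. After 20 h at 37° C., zone of inhibition measured as diameter in mm.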

B. subtilis AWD 166 = test: agar diffusion test (antimicrobial effect); type: cell-based, Bacillus subtilis
How it was run: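 Inhibition zone diameters (mm) read after 20 h incubation at 37 °C. Discs carried 10 μg, 50 μg or 100 μg of test substance, dissolved in methanol or distilled water, on agar inoculated with B. subtilis AWD 166 for dense but separate colonies.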

## CCOC(=O)C1=C(NC(C(=O)NC2C(=O)N3C(C(=O)O)=C(Cl)CSC23)c2ccccc2)C(=O)C=CC1=O (stereo not drawn) [1l]
[1]; Quantity n 0.019
  Diameter of zone of inhibition: r
[1]; Quantity n 0.09
  Diameter of zone of inhibition: r
[1]; Quantity n 0.19
  Diameter of zone of inhibition: r
[2]; Quantity n 0.019
  Diameter of zone of inhibition: r
[2]; Quantity n 0.09
  Diameter of zone of inhibition: 10 mm
[2]; Quantity n 0.19
  Diameter of zone of inhibition: 14 mm
E. faecalis 945; Quantity n 0.019
  Diameter of zone of inhibition: r
E. faecalis 945; Quantity n 0.09
  Diameter of zone of inhibition: r
E. faecalis 945; Quantity n 0.19
  Diameter of zone of inhibition: r
S. aureus ATCC 6538; Quantity n 0.019
  Diameter of zone of inhibition: 24 mm
S. aureus ATCC 6538; Quantity n 0.09
  Diameter of zone of inhibition: 30 mm
S. aureus ATCC 6538; Quantity n 0.19
  Diameter of zone of inhibition: 34 mm
S. aureus 38418; Quantity n [mol] 0.019
  Diameter of zone of inhibition: 18 mm
S. aureus 38418; Quantity n [mol] 0.09
  Diameter of zone of inhibition: 28 mm
S. aureus 38418; Quantity n [mol] 0.19
  Diameter of zone of inhibition: 30 mm
S. aureus 520; Quantity n [mol] 0.019
  Diameter of zone of inhibition: r
S. aureus 520; Quantity n [mol] 0.09
  Diameter of zone of inhibition: r
S. aureus 520; Quantity n [mol] 0.19
  Diameter of zone of inhibition: 10 mm
S. aureus 33490; Quantity n [μmol] 0.019
  Diameter of zone of inhibition: 14 mm
S. aureus 33490; Quantity n [μmol] 0.09
  Diameter of zone of inhibition: 20 mm
S. aureus 33490; Quantity n [μmol] 0.19
  Diameter of zone of inhibition: 24 mm
S. aureus 36881; Quantity n 0.019
  Diameter of zone of inhibition: r
S. aureus 36881; Quantity n 0.09
  Diameter of zone of inhibition: 8 mm
S. aureus 36881; Quantity n 0.19
  Diameter of zone of inhibition: 18 mm
[3]; Quantity n 0.019
  Diameter of zone of inhibition: r
[3]; Quantity n 0.09
  Diameter of zone of inhibition: 10 mm
[3]; Quantity n 0.19
  Diameter of zone of inhibition: 16 mm
S. aureus 34289; Quantity n [mol] 0.019
  Diameter of zone of inhibition: r
S. aureus 34289; Quantity n [mol] 0.09
  Diameter of zone of inhibition: r
S. aureus 34289; Quantity n [mol] 0.19
  Diameter of zone of inhibition: r
S. aureus 526; Quantity n 0.019
  Diameter of zone of inhibition: r
S. aureus 526; Quantity n 0.09
  Diameter of zone of inhibition: r
S. aureus 526; Quantity n 0.19
  Diameter of zone of inhibition: r
S. aureus 39105; Quantity n 0.019
  Diameter of zone of inhibition: r
S. aureus 39105; Quantity n 0.09
  Diameter of zone of inhibition: 18 mm
S. aureus 39105; Quantity n 0.19
  Diameter of zone of inhibition: 22 mm
S. epidermidis 1068; Quantity n 0.019
  Diameter of zone of inhibition: 14 mm
S. epidermidis 1068; Quantity n 0.09
  Diameter of zone of inhibition: 20 mm
S. epidermidis 1068; Quantity n 0.19
  Diameter of zone of inhibition: 22 mm
S. epidermidis 563; Quantity n 0.019
  Diameter of zone of inhibition: 16 mm
S. epidermidis 563; Quantity n 0.09
  Diameter of zone of inhibition: 28 mm
S. epidermidis 563; Quantity n 0.19
  Diameter of zone of inhibition: 30 mm
S. epidermidis 847; Quantity n [mol] 0.019
  Diameter of zone of inhibition: r
S. epidermidis 847; Quantity n [mol] 0.09
  Diameter of zone of inhibition: 20 mm
S. epidermidis 847; Quantity n [mol] 0.19
  Diameter of zone of inhibition: 22 mm
S. epidermidis 1071; Quantity n 0.019
  Diameter of zone of inhibition: 16 mm
S. epidermidis 1071; Quantity n 0.09
  Diameter of zone of inhibition: 24 mm
S. epidermidis 1071; Quantity n 0.19
  Diameter of zone of inhibition: 28 mm
S. epidermidis 125; Quantity n 0.019
  Diameter of zone of inhibition: 18 mm
S. epidermidis 125; Quantity n 0.09
  Diameter of zone of inhibition: 26 mm
S. epidermidis 125; Quantity n 0.19
  Diameter of zone of inhibition: 28 mm
[4]; Quantity n 0.019
  Diameter of zone of inhibition: 30 mm
[4]; Quantity n 0.09
  Diameter of zone of inhibition: 34 mm
[4]; Quantity n 0.19
  Diameter of zone of inhibition: 38 mm
B. subtilis AWD 166; Quantity n 0.019
  Diameter of zone of inhibition: 30 mm
B. subtilis AWD 166; Quantity n 0.09
  Diameter of zone of inhibition: 34 mm
B. subtilis AWD 166; Quantity n 0.19
  Diameter of zone of inhibition: 38 mm

## 3-chlorine-7-[2-(2-methoxycarbonyl-3,6-dioxocyclohexa-1,4-dienylamino)-2-phenyl-acetylamino]-8-oxo-1-thia-5-azabicyclo[4.2.0]oct-3-en-4-carboxylic acid [1k]
[1]; Quantity n 0.029
  Diameter of zone of inhibition: r
[1]; Quantity n 0.14
  Diameter of zone of inhibition: 8 mm
[1]; Quantity n 0.29
  Diameter of zone of inhibition: 14 mm
[2]; Quantity n 0.029
  Diameter of zone of inhibition: r
[2]; Quantity n 0.14
  Diameter of zone of inhibition: 12 mm
[2]; Quantity n 0.29
  Diameter of zone of inhibition: 14 mm
E. faecalis 945; Quantity n 0.029
  Diameter of zone of inhibition: r
E. faecalis 945; Quantity n 0.14
  Diameter of zone of inhibition: r
E. faecalis 945; Quantity n 0.29
  Diameter of zone of inhibition: r
S. aureus ATCC 6538; Quantity n 0.029
  Diameter of zone of inhibition: 28 mm
S. aureus ATCC 6538; Quantity n 0.14
  Diameter of zone of inhibition: 36 mm
S. aureus ATCC 6538; Quantity n 0.29
  Diameter of zone of inhibition: 38 mm
S. aureus 38418; Quantity n [mol] 0.029
  Diameter of zone of inhibition: 22 mm
S. aureus 38418; Quantity n [mol] 0.14
  Diameter of zone of inhibition: 30 mm
S. aureus 38418; Quantity n [mol] 0.29
  Diameter of zone of inhibition: 34 mm
S. aureus 520; Quantity n [mol] 0.029
  Diameter of zone of inhibition: r
S. aureus 520; Quantity n [mol] 0.14
  Diameter of zone of inhibition: r
S. aureus 520; Quantity n [mol] 0.29
  Diameter of zone of inhibition: 10 mm
S. aureus 33490; Quantity n [μmol] 0.029
  Diameter of zone of inhibition: 16 mm
S. aureus 33490; Quantity n [μmol] 0.14
  Diameter of zone of inhibition: 24 mm
S. aureus 33490; Quantity n [μmol] 0.29
  Diameter of zone of inhibition: 26 mm
S. aureus 36881; Quantity n 0.029
  Diameter of zone of inhibition: r
S. aureus 36881; Quantity n 0.14
  Diameter of zone of inhibition: 14 mm
S. aureus 36881; Quantity n 0.29
  Diameter of zone of inhibition: 18 mm
[3]; Quantity n 0.029
  Diameter of zone of inhibition: r
[3]; Quantity n 0.14
  Diameter of zone of inhibition: 14 mm
[3]; Quantity n 0.29
  Diameter of zone of inhibition: 18 mm
S. aureus 34289; Quantity n [mol] 0.029
  Diameter of zone of inhibition: r
S. aureus 34289; Quantity n [mol] 0.14
  Diameter of zone of inhibition: r
S. aureus 34289; Quantity n [mol] 0.29
  Diameter of zone of inhibition: r
S. aureus 526; Quantity n 0.029
  Diameter of zone of inhibition: r
S. aureus 526; Quantity n 0.14
  Diameter of zone of inhibition: r
S. aureus 526; Quantity n 0.29
  Diameter of zone of inhibition: r
S. aureus 39105; Quantity n 0.029
  Diameter of zone of inhibition: 8 mm
S. aureus 39105; Quantity n 0.14
  Diameter of zone of inhibition: 20 mm
S. aureus 39105; Quantity n 0.29
  Diameter of zone of inhibition: 22 mm
S. epidermidis 1068; Quantity n 0.029
  Diameter of zone of inhibition: 14 mm
S. epidermidis 1068; Quantity n 0.14
  Diameter of zone of inhibition: 22 mm
S. epidermidis 1068; Quantity n 0.29
  Diameter of zone of inhibition: 24 mm
S. epidermidis 563; Quantity n 0.029
  Diameter of zone of inhibition: 18 mm
S. epidermidis 563; Quantity n 0.14
  Diameter of zone of inhibition: 28 mm
S. epidermidis 563; Quantity n 0.29
  Diameter of zone of inhibition: 30 mm
S. epidermidis 847; Quantity n [mol] 0.029
  Diameter of zone of inhibition: 8 mm
S. epidermidis 847; Quantity n [mol] 0.14
  Diameter of zone of inhibition: 24 mm
S. epidermidis 847; Quantity n [mol] 0.29
  Diameter of zone of inhibition: 28 mm
S. epidermidis 1071; Quantity n 0.029
  Diameter of zone of inhibition: 18 mm
S. epidermidis 1071; Quantity n 0.14
  Diameter of zone of inhibition: 24 mm
S. epidermidis 1071; Quantity n 0.29
  Diameter of zone of inhibition: 28 mm
S. epidermidis 125; Quantity n 0.029
  Diameter of zone of inhibition: 20 mm
S. epidermidis 125; Quantity n 0.14
  Diameter of zone of inhibition: 30 mm
S. epidermidis 125; Quantity n 0.29
  Diameter of zone of inhibition: 32 mm
[4]; Quantity n 0.029
  Diameter of zone of inhibition: 30 mm
[4]; Quantity n 0.14
  Diameter of zone of inhibition: 36 mm
[4]; Quantity n 0.29
  Diameter of zone of inhibition: 38 mm
B. subtilis AWD 166; Quantity n 0.029
  Diameter of zone of inhibition: 30 mm
B. subtilis AWD 166; Quantity n 0.14
  Diameter of zone of inhibition: 36 mm
B. subtilis AWD 166; Quantity n 0.29
  Diameter of zone of inhibition: 38 mm
